In PubChem BioAssay AID1963959 (Molecular Pharmacology Branch, DTP, NCI, 2024):

System: T-47D spheroids with HUVEC/MSC, viability
Assay: Anticancer human tumor T-47D cell line growth inhibition [PI3K];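 also: spheroids exposed to agents for seven days before reading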;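 as to viability, T/C: percent of DMSO vehicle control luminescence so 100% = untreated growth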
Settings: for IC50: curve of first compound; for viability, T/C: stronger effect = lower value
Description: Combinatorial screen of targeted agents with the PI3K inhibitors inavolisib, alpelisib, duvelisib, and copanlisib in multi-cell type tumor spheroids
A high-throughput screen of multi-cell type tumor spheroids was designed to identify active combinations of targeted small molecules and PI3K pathway inhibitors. Complex spheroids include a stromal component modeled by human endothelial cells (HUVEC) and fibroblasts modeled by human mesenchymal stem cells (MSCs). The concentration ranges selected for each drug and investigational agent were based upon clinically achievable concentrations if the clinical Cmax of the agent was known.
Compounds. The drugs and investigational agents: inavolisib (NSC800729), alpelisib (NSC765974), duvelisib (NSC772469), copanlisib (NSC816437), ipatasertib (NSC767898), afuresertib (NSC778305), talazoparib (NSC767125), sapanisertib (NSC764658), selumetinib (NSC741078), tovorafenib (DAY101, NSC766906), vemurafenib (NSC761431), ravoxertinib (NSC781343), sotorasib (NSC818433), MRTX1133 (NSC 836407), abemaciclib (NSC 768073), palbociclib (NSC758247), venetoclax (NSC 766270), SY5609 (NSC837396), enzalutamide (NSC755605), and darolutamide (NSC825331), were obtained from the National Cancer Institute (NCI) Developmental Therapeutics Program Chemical Repository. The FDA-approved anticancer drug set is available from the NCI Developmental Therapeutics Program. […] The stock solutions were prepared in dimethyl sulfoxide (DMSO, Sigma-Aldrich, St. Louis, MO, cat. D2650) at 800-fold the tested concentration and stored at -70 degrees C prior to their use. All drugs and investigational agents were tested over a range starting from a high concentration at or near the clinical Cmax and decreasing in half-log increments. If the clinical Cmax for an agent had not been determined, the highest concentration tested was 10 microM.
Cell Culture. All cells were maintained in an incubator at 37 degrees C and 5% CO2 with 95% humidity. The PDC lines were cultured according to standard operating procedures established by the NCI PDMR (https://pdmr.cancer.gov/sops/default.htm). All PDCs were thawed and cultured in Matrigel-coated flasks prepared with a working solution of 1X Ham's F-12 nutrient mix, without supplementation (Invitrogen, Waltham, MA, cat. 11765054), 100 U/mL penicillin-streptomycin (Invitrogen, cat. 15140122), and 2.5% Matrigel (Corning Inc., Corning, NY, cat. 354248) for the first three passages. The 354836-022-R-J1-PDC, 475296-252-R-J1-PDC, and 997726-040-R-J2-PDC lines were cultured in 6A media, which includes advanced DMEM/F-12 (Thermo Fisher Scientific, cat. 12634028), 10 mM HEPES (Thermo Fisher Scientific, cat. 15630080), 1X GlutaMAX supplement (Thermo Fisher Scientific, cat. 35050061), 0.1 mg/mL primocin (InvivoGen, San Diego, CA, cat. ant-pm-2), 10% defined fetal bovine serum, heat inactivated (HyClone Laboratories Inc., Logan, UT, cat. SH30070.03HI), 50% L-WRN conditioned media (ATCC, cat. CRL-3276), 1.25 mM N-Acetyl-L-cysteine (Sigma-Aldrich, cat. A9165), 10 mM nicotinamide (Sigma-Aldrich, cat. N0636), 1X B-27 supplement (Thermo Fisher Scientific, cat. 17504044), 1X N-2 supplement (Thermo Fisher Scientific, cat. 17502048), and 10 microM Y-27632 dihydrochloride (Tocris Bioscience, Bristol, United Kingdom, cat. 1254). The 624824-186-R-J2-PDC line was cultured in 6C/Colon 1B media, which includes all 6A media components plus 50 ng/mL human EGF recombinant protein (Thermo Fisher Scientific, cat. PHG0311). […]

CC(=O)c1c(C)c2cnc(Nc3ccc(N4CCNCC4)cn3)nc2n(C2CCCC2)c1=O + COc1c(OCCCN2CCOCC2)ccc2c3n(c(=NC(=O)c4cnc(N)nc4)nc12)CCN3
IC50 (second compound 0.00316 µM): > 0.1 µM | IC50 (second compound 0.01 µM): > 0.1 µM | IC50 (second compound 0.0316 µM): 0.0397 µM | IC50 (second compound 0.1 µM): < 0.000316 µM | IC50 (second compound 0.316 µM): < 0.000316 µM | IC50 (second compound 1 µM): < 0.000316 µM | viability, T/C (second compound 0.00316 µM, first compound 0.000316 µM): 120% | viability, T/C (second compound 0.00316 µM, first compound 0.001 µM): 118% | viability, T/C (second compound 0.00316 µM, first compound 0.00316 µM): 95.3% | viability, T/C (second compound 0.00316 µM, first compound 0.01 µM): 95.6% | viability, T/C (second compound 0.00316 µM, first compound 0.0316 µM): 80.5% | viability, T/C (second compound 0.00316 µM, first compound 0.1 µM): 85% | viability, T/C (second compound 0.01 µM, first compound 0.000316 µM): 89.3% | viability, T/C (second compound 0.01 µM, first compound 0.001 µM): 104% | viability, T/C (second compound 0.01 µM, first compound 0.00316 µM): 95.5% | viability, T/C (second compound 0.01 µM, first compound 0.01 µM): 83.4% | viability, T/C (second compound 0.01 µM, first compound 0.0316 µM): 84.3% | viability, T/C (second compound 0.01 µM, first compound 0.1 µM): 74.2% | viability, T/C (second compound 0.0316 µM, first compound 0.000316 µM): 71.3% | viability, T/C (second compound 0.0316 µM, first compound 0.001 µM): 64.8% | viability, T/C (second compound 0.0316 µM, first compound 0.00316 µM): 74.2% | viability, T/C (second compound 0.0316 µM, first compound 0.01 µM): 68.3% | viability, T/C (second compound 0.0316 µM, first compound 0.0316 µM): 51.8% | viability, T/C (second compound 0.0316 µM, first compound 0.1 µM): 42.7% | viability, T/C (second compound 0.1 µM, first compound 0.000316 µM): 35.3% | viability, T/C (second compound 0.1 µM, first compound 0.001 µM): 42.8% | viability, T/C (second compound 0.1 µM, first compound 0.00316 µM): 34% | viability, T/C (second compound 0.1 µM, first compound 0.01 µM): 32.9% | viability, T/C (second compound 0.1 µM, first compound 0.0316 µM): 26.6% | viability, T/C (second compound 0.1 µM, first compound 0.1 µM): 27.1% | viability, T/C (second compound 0.316 µM, first compound 0.000316 µM): 14.5% | viability, T/C (second compound 0.316 µM, first compound 0.001 µM): 17.1% | viability, T/C (second compound 0.316 µM, first compound 0.00316 µM): 19.7% | viability, T/C (second compound 0.316 µM, first compound 0.01 µM): 13.2% | viability, T/C (second compound 0.316 µM, first compound 0.0316 µM): 15% | viability, T/C (second compound 0.316 µM, first compound 0.1 µM): 13.6% | viability, T/C (second compound 1 µM, first compound 0.000316 µM): 5.84% | viability, T/C (second compound 1 µM, first compound 0.001 µM): 7.18% | viability, T/C (second compound 1 µM, first compound 0.00316 µM): 7.6% | viability, T/C (second compound 1 µM, first compound 0.01 µM): 5.71% | viability, T/C (second compound 1 µM, first compound 0.0316 µM): 7.91% | viability, T/C (second compound 1 µM, first compound 0.1 µM): 6.26%

Cn1cnc2c(F)c(Nc3ccc(Br)cc3Cl)c(C(=O)NOCCO)cc21 + CC(Nc1ccc2c(c1)OCCn1cc(N3C(=O)OCC3C(F)F)nc1-2)C(N)=O
IC50 (second compound 0.00316 µM): > 3 µM | IC50 (second compound 0.01 µM): > 3 µM | IC50 (second compound 0.0316 µM): > 3 µM | IC50 (second compound 0.1 µM): > 3 µM | IC50 (second compound 0.316 µM): > 3 µM | IC50 (second compound 1 µM): 0.294 µM | viability, T/C (second compound 0.00316 µM, first compound 0.00949 µM): 105% | viability, T/C (second compound 0.00316 µM, first compound 0.03 µM): 84.7% | viability, T/C (second compound 0.00316 µM, first compound 0.0949 µM): 99.8% | viability, T/C (second compound 0.00316 µM, first compound 0.3 µM): 91.8% | viability, T/C (second compound 0.00316 µM, first compound 0.949 µM): 86.1% | viability, T/C (second compound 0.00316 µM, first compound 3 µM): 79.2% | viability, T/C (second compound 0.01 µM, first compound 0.00949 µM): 97.5% | viability, T/C (second compound 0.01 µM, first compound 0.03 µM): 80.4% | viability, T/C (second compound 0.01 µM, first compound 0.0949 µM): 96.1% | viability, T/C (second compound 0.01 µM, first compound 0.3 µM): 98.8% | viability, T/C (second compound 0.01 µM, first compound 0.949 µM): 82.3% | viability, T/C (second compound 0.01 µM, first compound 3 µM): 88.5% | viability, T/C (second compound 0.0316 µM, first compound 0.00949 µM): 95.5% | viability, T/C (second compound 0.0316 µM, first compound 0.03 µM): 80.5% | viability, T/C (second compound 0.0316 µM, first compound 0.0949 µM): 101% | viability, T/C (second compound 0.0316 µM, first compound 0.3 µM): 96.6% | viability, T/C (second compound 0.0316 µM, first compound 0.949 µM): 97.8% | viability, T/C (second compound 0.0316 µM, first compound 3 µM): 86.4% | viability, T/C (second compound 0.1 µM, first compound 0.00949 µM): 85.6% | viability, T/C (second compound 0.1 µM, first compound 0.03 µM): 86.1% | viability, T/C (second compound 0.1 µM, first compound 0.0949 µM): 83.5% | viability, T/C (second compound 0.1 µM, first compound 0.3 µM): 90.2% | viability, T/C (second compound 0.1 µM, first compound 0.949 µM): 86.5% | viability, T/C (second compound 0.1 µM, first compound 3 µM): 83.8% | viability, T/C (second compound 0.316 µM, first compound 0.00949 µM): 71.3% | viability, T/C (second compound 0.316 µM, first compound 0.03 µM): 75.3% | viability, T/C (second compound 0.316 µM, first compound 0.0949 µM): 70.3% | viability, T/C (second compound 0.316 µM, first compound 0.3 µM): 66.5% | viability, T/C (second compound 0.316 µM, first compound 0.949 µM): 71.8% | viability, T/C (second compound 0.316 µM, first compound 3 µM): 61.1% | viability, T/C (second compound 1 µM, first compound 0.00949 µM): 54% | viability, T/C (second compound 1 µM, first compound 0.03 µM): 56.8% | viability, T/C (second compound 1 µM, first compound 0.0949 µM): 59.2% | viability, T/C (second compound 1 µM, first compound 0.3 µM): 49.7% | viability, T/C (second compound 1 µM, first compound 0.949 µM): 47.8% | viability, T/C (second compound 1 µM, first compound 3 µM): 52.2%
